This series is described as follows: Human HepG2 cell viability assay in 384 well format. The format is toxicity, cell-based. Further details: dose 125 nL, time 70.5 hour; concentration not given beside the values. The conditions noted are these: HepG2 cells, read-out: Inhibition.

Molecules are shown by their SMILES.

Regarding `O=C1CC(c2cccnc2)c2c(c(C(=O)O)cn2-c2ccc(Cl)cc2)N1` (configuration not stated), the cytotoxicity at 70.5 h is -7.08%.
In the case of `CN1CCN(C(=O)c2cc3sccc3n2Cc2ccccc2F)CC1` it was -9.9%; in that of `CC(C)[C@H](NC(=O)Cn1nc2c(cc1=O)CCCC2)C(=O)O`, -4.44%; in that of `CCn1cc(-c2nn3c(C(F)(F)F)nnc3s2)cn1`, -16.2%.
In the case of `CN(C)CCCNC(=O)c1nc(Cc2c(Cl)cccc2Cl)no1` it was 15.3%; in that of `O=C(Nc1ccccn1)c1csc(NC2CCCC2)n1`, 1.59%; in that of `Cc1nn(C)cc1C1CC(=O)Nc2c1cnn2C` (configuration not stated), -5.3%.
In the case of `Cc1nc(NC(=O)CN2C(=O)c3ccccc3NC2C(C)C)sc1C` (configuration not stated) it was -11.4%; in that of `CC1CCc2[nH]c(=O)c(C(=O)N3CCc4ccccc4C3)cc2C1` (configuration not stated), 0.747%.
In the case of `COC(=O)[C@H](C)NC(=O)CSCc1nc2sc(C(C)C)cc2c(=O)[nH]1`, the cytotoxicity at 70.5 h is -9.3%.
For `Cc1c(CC(C#N)C(=O)Nc2cccc(O)c2)cnn1C` (configuration not stated) the value was -12.8%; for `C[C@@H](O)CNc1c(NCc2ccco2)c(=O)c1=O`, -12.9%; for `Cc1cc(=O)n(CC(=O)Nc2ccc(Cl)cc2)nc1C`, -2.9%.
As to `O=C1CC(c2ccc3c(c2)OCO3)c2cnn(C3CCCC3)c2N1` (configuration not stated), the cytotoxicity at 70.5 h was -15.7%.
As to `CN1CCCC2(CCN(Cc3cncn3C3CCCCC3)C2)C1=O` (configuration not stated), the cytotoxicity at 70.5 h was -4.94%.
Regarding `CN1CCCCC1Cc1nc(Cc2cccc(F)c2)no1` (configuration not stated), the cytotoxicity at 70.5 h was -7.83%.
For the molecule `Cc1ccccc1CC(=O)N1CCc2c(ncnc2N2CCOCC2)C1`, the cytotoxicity at 70.5 h amounted to 13.5%.
Turning to `CCC(C)c1ccc(NC(=O)C2CCN(C(=O)COC)CC2)cc1` (configuration not stated), the cytotoxicity at 70.5 h was -6.71%.
In the case of `Cc1nc(N(C)CCN(C)C)c2cnn(C)c2n1` it was 19.9%; in that of `COCc1nc2ncc3c(=O)n(-c4ccc(C(C)=O)cc4)ccc3n2n1`, -10.8%.
In the case of `Cc1cccc(C)c1OC1CN(Cc2cnn(C)c2)C1` it was 0.587%; in that of `Cc1nn(C)c(C)c1-c1cc(-c2cc(CC(=O)O)cs2)nc(N)c1C#N`, -7.79%; in that of `Cc1nonc1C1CCCN1Cc1ccc(C(=O)Nc2nccs2)cc1` (configuration not stated), 9.65%.
On to `O=C1CC(c2ccccc2F)c2c(n(C3CCCC3)[nH]c2=O)N1` (configuration not stated), for which the cytotoxicity at 70.5 h was -7.2%.
For `CC(=O)N1CCCn2nc(CNS(=O)(=O)Cc3ccccc3)cc2C1` the value was -3.38%; for `COc1cccc(-c2cc(NCC(=O)O)nc3[nH]ccc23)n1`, 15.1%; for `CCCc1nc(C)cc(N2CCNC(C(=O)Nc3ccc(C)nc3)C2)n1` (configuration not stated), 19.3%.
`COc1ccnc(CN2CCC=C(C(C)NC(C)=O)C2)c1OC` (configuration not stated): the cytotoxicity at 70.5 h was -3.19%.
For `CC(C)(C)c1cc(CN2CCOC(CN)C2)n[nH]1` (configuration not stated) the value was 2.01%; for `O=C(NCCN1CCOCC1)c1ccc(-c2ccc(F)cc2)nc1O`, -3.89%; for `CN1CC2(CCN(CCOCCO)CC2)CC(c2ccccc2)C1=O` (configuration not stated), 29.9%.
As for `CC(=O)NC1CC(C)(C)Cc2c1cnn2-c1cccc(F)c1` (configuration not stated), the cytotoxicity at 70.5 h was -9.9%.
For `COc1nc2c(cc1C(=O)NCCc1nc(C)c(C(=O)O)s1)CCC2` the value was 10%; for `O=C1CC(c2ccccc2)c2cnn(C3CCCC3)c2N1` (configuration not stated), 18.5%; for `Cc1ccc2c(c1)OC(C)(C)CC2NC(=O)C1CCN(C)CC1` (configuration not stated), -9.96%.
For `O=C(CCN1CCOCC1)N1CCC(Cc2ccc(CO)cc2)C1` (configuration not stated) the value was -2.12%; for `O=C(CN1CCCC1Cn1cncn1)NCCOc1ccc(F)cc1` (configuration not stated), -0.118%; for `Cc1ccccc1C1(CNC(=O)NC(C)c2nncn2C)CC1` (configuration not stated), -2.77%.
As to `CC(NC(=O)NCC1(c2ccc(Cl)cc2)CC1)c1nncn1C` (configuration not stated), the cytotoxicity at 70.5 h was -2.86%.
As for `O=C(CN1CCCC1Cn1cccn1)NCCOc1cccc(F)c1` (configuration not stated), the cytotoxicity at 70.5 h is -0.693%.
In the case of `CCNc1cc2c(nn1)CCN(C(=O)CCc1c(C)noc1C)C2` it was 18.9%.
For `Cc1nc(C2CCCN(C(=O)c3ccc(OCC4CC4)nc3)C2)no1` (configuration not stated), the cytotoxicity at 70.5 h is -2.87%.
For `CCOc1cc(C(=O)N2CCCC(c3noc(C)n3)C2)ccc1OC` (configuration not stated) the value was -4.06%.
For `CCNc1cc2c(nn1)CCN(C(=O)CCc1c(C)noc1Cl)C2` the value was -4.23%; for `CCNc1cc2c(nn1)CCN(C(=O)Cc1c(C)nn(C)c1C)C2`, -2.18%; for `Cc1cccc(C)c1OCCNC(=O)CN1CCN(C)CC1C` (configuration not stated), 16.7%.
In the case of `CCOc1ncccc1NC(=O)N1CCN(CC(=O)NC)CC1` it was -8.56%; in that of `Fc1cc(CN2CCCC2Cn2cncn2)c2ncccc2c1` (configuration not stated), 4.94%; in that of `CCOc1ncccc1NC(=O)N1CCN(Cc2ccncc2)CC1`, -4.21%.
For the molecule `Cc1ccc(C(C)N(C)Cc2nc3c(cnn3C)c(=O)[nH]2)c(C)c1` (configuration not stated), the cytotoxicity at 70.5 h was -4.81%.
For the molecule `CN(CCCc1cc(-c2ccccc2)no1)S(C)(=O)=O`, the cytotoxicity at 70.5 h is 8.59%.
On to `COc1ccccc1C(C)N(C)Cc1nc2c(cnn2C)c(=O)[nH]1` (configuration not stated), for which the cytotoxicity at 70.5 h was -8.94%.
In the case of `O=C1NCCN1C1CCN(CCOc2ccccc2Cl)CC1`, the cytotoxicity at 70.5 h stood at 0.552%.
For `Cn1ccnc1CN1CCN(Cc2ccc(C#N)cc2F)CC1` the value was -1.66%.
For `Cn1ccnc1CN1CCN(Cc2ccc(C#N)cc2)CC1`, the cytotoxicity at 70.5 h was -2.96%.
In the case of `CC1CN(Cc2ccc(C#N)cc2F)CCN1Cc1nccn1C` (configuration not stated), the cytotoxicity at 70.5 h is -5.45%.
As for `COc1ccccc1OCCNC(=O)CN1CCN(C)CC1C` (configuration not stated), the cytotoxicity at 70.5 h is -2.58%.
For `CC1CN(C)CCN1CC(=O)NCCOc1ccc2c(c1)OCO2` (configuration not stated) the value was 9.64%; for `CCc1ccc(S(=O)(=O)Nc2cc(C(=O)O)ccc2F)s1`, -3.74%.
For `O=C1NCCN1C1CCN(CCOc2cccc3ccccc23)CC1` the value was 0.611%; for `CN1CCOC(CNCc2ccccc2OCc2ccccn2)C1` (configuration not stated), -9.16%.
In the case of `CNc1nc(CNC(=O)Nc2cccc(CN(C)C)c2)cs1` it was 0.614%; in that of `Cc1ccc(CC(=O)N2CCCC(c3cc(C(N)=O)[nH]n3)C2)cn1` (configuration not stated), -2.37%.
Take `CNc1nc(CNC(=O)Nc2cccc(CC(F)(F)F)c2)cs1`: the cytotoxicity at 70.5 h is -4.82%.
Consider `O=C(CN1CCOC(Cn2cncn2)C1)NCc1cccs1` (configuration not stated), for which the cytotoxicity at 70.5 h was found to be 29.2%.
Take `Cc1ccc(C2CCCN2S(=O)(=O)N(C)CCc2ccccn2)o1` (configuration not stated): the cytotoxicity at 70.5 h was found to be 4.42%.
In the case of `CSc1ccc(CN(C)C(=O)c2cc3c([nH]c2=O)CCCC3=O)cc1` it was -2.82%; in that of `Cc1noc(C)c1C(=O)NCCSCc1cccs1`, 0.282%.
For the molecule `CS(=O)(=O)NC1CCN(C(=O)NCCc2ccccn2)CC1`, the cytotoxicity at 70.5 h was determined as 13.9%.
On to `CS(=O)(=O)NC1CCN(C(=O)NCc2ccccn2)CC1`, for which the cytotoxicity at 70.5 h is -2.65%.
For `CCc1nc(CN2CCN(C(=O)c3cncnc3CC)CC2)cs1` the value was -3.73%; for `COCCCNC(=O)CN(C)C(=O)c1ccc(OC)cc1O`, -5.57%; for `Cc1cc(C)n(CC2CN(CC(=O)NCc3cccs3)CCO2)n1` (configuration not stated), 13.4%.
For `COCCNC(=O)CN1CCN(c2nc(C)cs2)CC1` the value was -3.26%; for `O=C(CN1CCOC(Cn2cccn2)C1)NCc1ccco1` (configuration not stated), -2.4%.
Consider `O=C(CN1CCOC(Cn2cccn2)C1)NCCc1cccs1` (configuration not stated), for which the cytotoxicity at 70.5 h is -4.13%.
For `Cc1csc(N2CCN(CC(=O)NC3CCOCC3)CC2C)n1` (configuration not stated), the cytotoxicity at 70.5 h is -1.39%.
On to `Cc1nn(C)c(C)c1C1CCCN1C(=O)c1ccc2nnc(C)n2c1` (configuration not stated), for which the cytotoxicity at 70.5 h was -2.36%.
In the case of `CC(C)N(Cc1ccccn1)S(=O)(=O)N1CCCC1c1ccco1` (configuration not stated), the cytotoxicity at 70.5 h worked out at 3.04%.
Take `N#CCCN(C(=O)CN1CCCC1c1cccs1)c1ccccc1F` (configuration not stated): the cytotoxicity at 70.5 h was determined as 1.76%.
In the case of `CCc1ccc(C(=O)N2CCCCC2Cn2cccn2)o1` (configuration not stated) it was 6.61%.
For `Cc1cnn(CCNCc2ccccc2F)c1` the value was 0.747%; for `Cc1ccc(OCCN2CCN(Cc3cnn(CCO)c3)CC2)cc1`, -0.0785%.
For `CN(Cc1cnn(C)c1)C(=O)NCc1cc(Br)cs1` the value was -2.54%.
Turning to `Cc1ncsc1C(=O)NCCc1cccs1`, the cytotoxicity at 70.5 h amounted to 2.38%.
With `N#CCCN(C(=O)CN1CCCC1c1ccsc1)c1ccccc1` (configuration not stated), the cytotoxicity at 70.5 h was 20.9%.
Turning to `Cc1cncc(C(=O)NCCSCc2cccs2)c1`, the cytotoxicity at 70.5 h is -3.14%.
With `CCc1nnc2n1CCN(Cc1cccc3c1OCCO3)C2`, the cytotoxicity at 70.5 h was 21.6%.
For the molecule `c1ccc(-c2nnc3n2CCN(Cc2ccc4c(c2)OCCO4)C3)cc1`, the cytotoxicity at 70.5 h is 26.9%.
As to `c1ccc2oc(CN3CCCC3c3noc(C4CC4)n3)nc2c1` (configuration not stated), the cytotoxicity at 70.5 h is -11.3%.
For the molecule `CCOc1ncccc1CNc1nnc(C)c(C)c1C#N`, the cytotoxicity at 70.5 h was -0.879%.
For `Cc1nnc(NCc2ccccc2F)c(C#N)c1C` the value was -5.23%; for `Cc1nnc(NCc2ccccc2S(=O)(=O)N(C)C)c(C#N)c1C`, 0.114%; for `COc1cccc(C(NCc2ccc(SC)cc2)c2nccn2C)c1` (configuration not stated), 3.42%.
In the case of `COc1ccccc1C(NCc1ccc(SC)cc1)c1nccn1C` (configuration not stated) it was 11.2%.
For `O=C(NCCn1nc2ccccn2c1=O)c1scnc1Cl` the value was -2.79%; for `Cn1ccnc1C(NCc1ccccc1)c1ccc(F)cc1` (configuration not stated), -2.68%.
`Cc1ncncc1C(=O)NCCn1nc2ccccn2c1=O`: the cytotoxicity at 70.5 h is -3.41%.
For `Cc1nnc(NCc2cccnc2OCC(F)(F)F)c(C#N)c1C`, the cytotoxicity at 70.5 h is -0.691%.
For `Cc1nc(C)c(C(=O)NCCn2nc3ccccn3c2=O)s1` the value was -1.89%; for `CCc1nnc2n1CCN(Cc1cc(Cl)c3c(c1)OCCCO3)C2`, 0.524%; for `CSc1ccc(CNC(c2ccccc2F)c2nccn2C)cc1` (configuration not stated), 0.516%.

These data come from ChEMBL document CHEMBL3507680, “University of Dundee, Gates Library screen for HepG2 cell viability”.
